According to patent US20080070867A1, “2-Imidazolone and 2-Imidazolidinone Heterocyclic Inhibitors of Tyrosine Phosphatases” (Metabasis Therapeutics, Inc., priority 2005, published 2008):

Biological target: T1, Human recombinant PTP-1B (Homo sapiens, UniProt P18031)
T1 construct: Human recombinant PTP-1B, containing amino acids 1-321, fused to GST enzyme; GST (glutathione S-transferase)
T1 sequence (P18031 1-321): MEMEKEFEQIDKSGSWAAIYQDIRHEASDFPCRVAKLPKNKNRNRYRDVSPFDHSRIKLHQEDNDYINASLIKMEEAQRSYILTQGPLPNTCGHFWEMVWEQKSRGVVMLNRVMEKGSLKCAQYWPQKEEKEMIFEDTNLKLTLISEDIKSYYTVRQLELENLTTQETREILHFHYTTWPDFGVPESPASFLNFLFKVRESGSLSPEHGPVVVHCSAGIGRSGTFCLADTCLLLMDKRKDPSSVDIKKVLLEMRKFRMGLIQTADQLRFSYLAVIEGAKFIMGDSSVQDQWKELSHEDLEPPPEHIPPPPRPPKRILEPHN
Test: Assay for PTP-1B Activity (pNPP substrate)
Type: biochemical
Settings: human recombinant PTP-1B (1-321) GST fusion, 2 mM pNPP, pH 7.4, 30° C., 20 min; read-out: Activity Code (IC50 range)
Text: The activity of the compounds as modulators of protein tyrosine phosphatase, including PTP-1B, may be measured in standard assays (see, e.g., Examples 41 and 42). Briefly, the assay described herein employs human recombinant PTP-1B and a pNPP substrate in a rescue assay.
Assay for PTP-1B Activity
Enzyme: Human recombinant PTP-1B, containing amino acids 1-321, fused to GST enzyme (glutathione S-transferase) purified by affinity chromatography (Huyer et al, 1997, J. Biol. Chem., 272, 843-852).
pNPP: p-Nitrophenyl Phosphate (Calbiochem)
Assay Buffer: 50 mM HEPES (pH 7.4), 100 mM NaCl, 2 mM EDTA, 3 mM DTT
(5×) pNPP substrate: 10 mM pNPP in assay buffer
Enzyme: 1 mg/ml PTP1B (1-321), dilute 1:200 in assay buffer
Assay buffer: 50 mM HEPES (pH 7.4), 100 mM NaCl, 2 mM EDTA, 3 mM DTT
Enzyme dilution buffer: 50 mM HEPES (pH 7.4), 100 mM NaCl, 2 mM EDTA, 3 mM DTT
Substrate 198 mM p-Nitrophenyl Phosphate (pNPP) store at 4° C.
The assay was carried out at 30° C. in 96 well plates. The reaction mixture in 60 ul contained 50 mM HEPES (pH 7.4), 100 mM NaCl, 2 mM EDTA, 3 mM DTT, and 2 mM p-Nitrophenyl Phosphate (pNPP). 5 ul of the test compound (inhibitor) dissolved in DMSO or DMSO alone for control was added to each well and the plate was mixed for 2 min. The reaction was initiated by adding 20 ul of diluted PTP1B (5 ng/ul in 50 mM HEPES (pH 7.4), 100 mM NaCl, 2 mM EDTA, 3 mM DTT). After 20 min at 30° C., the enzyme reaction was terminated by adding 100 ul of 2 M K2CO3 to each well. The phosphatase activity was detected by using Victor II plate reader (Wallac) with absorbance detection at 405 nm. All the assays were done at least in duplicate. The initial rate of pNP is plotted against the concentration of inhibitor.

SMILES | IC50
O=C(O)c1ccc(-c2cn(Cc3ccccc3)c(=O)n2Cc2ccc(C(F)(F)P(=O)(O)O)c(Br)c2)cc1 [Compound 2, 4-{1-Benzyl-3-[3-bromo-4-(difluoro-phosphono-methyl)-benzyl]-2-oxo-2,3-dihydro-1H-imidazol-4-yl}-benzoic acid] | 0.25 to 2.5 µM
CS(=O)(=O)c1ccc(-c2c[nH]c(=O)n2Cc2ccc(C(F)(F)P(=O)(O)O)c(Br)c2)cc1 [Compound 3, ({2-Bromo-4-[5-(4-methanesulfonyl-phenyl)-2-oxo-2,3-dihydro-imidazol-1-ylmethyl]-phenyl}-difluoro-methyl)-phosphonic acid] | 0.25 to 2.5 µM
COC(=O)c1ccc(-c2cn(Cc3ccccc3)c(=O)n2Cc2ccc(C(F)(F)P(=O)(O)O)c(Br)c2)cc1 [Compound 6, 4-{1-Benzyl-3-[3-bromo-4-(difluoro-phosphono-methyl)-benzyl]-2-oxo-2,3-dihydro-1H-imidazol-4-yl}-benzoic acid methyl ester] | 0.1 to 0.249 µM
O=C(O)c1ccc(-c2c[nH]c(=O)n2Cc2ccc(C(F)(F)P(=O)(O)O)c(Br)c2)cc1 [Compound 7, 4-{3-[3-Bromo-4-(difluoro-phosphono-methyl)-benzyl]-2-oxo-2,3-dihydro-1H-imidazol-4-yl}-benzoic acid] | 0.25 to 2.5 µM
COC(=O)c1ccc(-c2cn(Cc3ccc(F)cc3)c(=O)n2Cc2ccc(C(F)(F)P(=O)(O)O)c(Br)c2)cc1 [Compound 11, 4-[3-[3-Bromo-4-(difluoro-phosphono-methyl)-benzyl]-1-(4-fluoro-benzyl)-2-oxo-2,3-dihydro-1H-imidazol-4-yl]-benzoic acid methyl ester] | 0.1 to 0.249 µM
COC(=O)c1ccc(-c2cn(CCc3ccccc3)c(=O)n2Cc2ccc(C(F)(F)P(=O)(O)O)c(Br)c2)cc1 [Compound 12, 4-{3-[3-Bromo-4-(difluoro-phosphono-methyl)-benzyl]-2-oxo-1-phenethyl-2,3-dihydro-1H-imidazol-4-yl}-benzoic acid methyl ester] | 0.25 to 2.5 µM
O=C(O)c1ccc(-c2cn(Cc3ccc(F)cc3)c(=O)n2Cc2ccc(C(F)(F)P(=O)(O)O)c(Br)c2)cc1 [Compound 13, 4-[3-[3-Bromo-4-(difluoro-phosphono-methyl)-benzyl]-1-(4-fluoro-benzyl)-2-oxo-2,3-dihydro-1H-imidazol-4-yl]-benzoic acid] | 0.25 to 2.5 µM
O=C(O)c1ccc(-c2cn(CCc3ccccc3)c(=O)n2Cc2ccc(C(F)(F)P(=O)(O)O)c(Br)c2)cc1 [Compound 14, 4-{3-[3-Bromo-4-(difluoro-phosphono-methyl)-benzyl]-2-oxo-1-phenethyl-2,3-dihydro-1H-imidazol-4-yl}-benzoic acid] | 0.25 to 2.5 µM
COC(=O)c1ccc(-c2cn(Cc3ccc(C#N)cc3)c(=O)n2Cc2ccc(C(F)(F)P(=O)(O)O)c(Br)c2)cc1 [Compound 15, 4-[3-[3-Bromo-4-(difluoro-phosphono-methyl)-benzyl]-1-(4-cyano-benzyl)-2-oxo-2,3-dihydro-1H-imidazol-4-yl]-benzoic acid methyl ester] | 0.1 to 0.249 µM
CCOC(=O)c1ccc(-c2cn(Cc3ccccc3)c(=O)n2Cc2ccc(C(F)(F)P(=O)(O)O)c(Br)c2)cc1 [Compound 16, 4-{1-Benzyl-3-[3-bromo-4-(difluoro-phosphono-methyl)-benzyl]-2-oxo-2,3-dihydro-1H-imidazol-4-yl}-benzoic acid ethyl ester] | 0.25 to 2.5 µM
CS(=O)(=O)c1ccc(-c2cn(Cc3ccccc3)c(=O)n2Cc2ccc(C(F)(F)P(=O)(O)O)c(Br)c2)cc1 [Compound 17, ({4-[3-Benzyl-5-(4-methanesulfonyl-phenyl)-2-oxo-2,3-dihydro-imidazol-1-ylmethyl]-2-bromo-phenyl}-difluoro-methyl)-phosphonic acid] | < 0.099 µM
N#Cc1ccc(-c2cn(Cc3ccccc3)c(=O)n2Cc2ccc(C(F)(F)P(=O)(O)O)c(Br)c2)cc1 [Compound 20, ({4-[3-Benzyl-5-(4-cyano-phenyl)-2-oxo-2,3-dihydro-imidazol-1-ylmethyl]-2-bromo-phenyl}-difluoro-methyl)-phosphonic acid] | 0.1 to 0.249 µM

Next, values leading:

IC50 | SMILES
0.1 to 0.249 µM | CCOC(=O)n1cc(-c2ccc(S(C)(=O)=O)cc2)n(Cc2ccc(C(F)(F)P(=O)(O)O)c(Br)c2)c1=O [Compound 1, 3-[3-Bromo-4-(difluoro-phosphono-methyl)-benzyl]-4-(4-methanesulfonyl-phenyl)-2-oxo-2,3-dihydro-imidazole-1-carboxylic acid ethyl ester]
0.1 to 0.249 µM | Cn1cc(-c2ccc(S(C)(=O)=O)cc2)n(Cc2ccc(C(F)(F)P(=O)(O)O)c(Br)c2)c1=O [Compound 4, ({2-Bromo-4-[5-(4-methanesulfonyl-phenyl)-3-methyl-2-oxo-2,3-dihydro-imidazol-1-ylmethyl]-phenyl}-difluoro-methyl)-phosphonic acid]
0.25 to 2.5 µM | O=C(O)c1ccc(-c2cn(Cc3ccccc3)c(=O)n2Cc2ccc(C(F)(F)P(=O)(O)O)c(Cl)c2)cc1 [Compound 9, 4-{1-Benzyl-3-[3-chloro-4-(difluoro-phosphono-methyl)-benzyl]-2-oxo-2,3-dihydro-1H-imidazol-4-yl}-benzoic acid]
0.25 to 2.5 µM | COC(=O)c1ccc(-c2cn(Cc3ccccc3)c(=O)n2Cc2ccc(C(F)(F)P(=O)(O)O)c(Cl)c2)cc1 [Compound 10, 4-{1-Benzyl-3-[3-chloro-4-(difluoro-phosphono-methyl)-benzyl]-2-oxo-2,3-dihydro-1H-imidazol-4-yl}-benzoic acid methyl ester]
0.1 to 0.249 µM | CS(=O)(=O)c1ccc(-c2cn(C3CC3)c(=O)n2Cc2ccc(C(F)(F)P(=O)(O)O)c(Br)c2)cc1 [Compound 21, ({2-Bromo-4-[3-cyclopropyl-5-(4-methanesulfonyl-phenyl)-2-oxo-2,3-dihydro-imidazol-1-ylmethyl]-phenyl}-difluoro-methyl)-phosphonic acid]
0.1 to 0.249 µM | CS(=O)(=O)c1ccc(-c2cn(Cc3cccc(F)c3)c(=O)n2Cc2ccc(C(F)(F)P(=O)(O)O)c(Br)c2)cc1 [Compound 22, ({2-Bromo-4-[3-(3-fluoro-benzyl)-5-(4-methanesulfonyl-phenyl)-2-oxo-2,3-dihydro-imidazol-1-ylmethyl]-phenyl}-difluoro-methyl)-phosphonic acid]
< 0.099 µM | COC(=O)c1ccc(-c2cn(Cc3cc(OC)cc(OC)c3)c(=O)n2Cc2ccc(C(F)(F)P(=O)(O)O)c(Br)c2)cc1 [Compound 23, 4-[3-[3-Bromo-4-(difluoro-phosphono-methyl)-benzyl]-1-(3,5-dimethoxy-benzyl)-2-oxo-2,3-dihydro-1H-imidazol-4-yl]-benzoic acid methyl ester]
0.1 to 0.249 µM | COC(=O)c1ccc(-c2cn(C3CC3)c(=O)n2Cc2ccc(C(F)(F)P(=O)(O)O)c(Br)c2)cc1 [Compound 24, 4-{3-[3-Bromo-4-(difluoro-phosphono-methyl)-benzyl]-1-cyclopropyl-2-oxo-2,3-dihydro-1H-imidazol-4-yl}-benzoic acid methyl ester]
0.1 to 0.249 µM | COC(=O)c1ccc(-c2cn(Cc3ccccn3)c(=O)n2Cc2ccc(C(F)(F)P(=O)(O)O)c(Br)c2)cc1 [Compound 25, 4-{3-[3-Bromo-4-(difluoro-phosphono-methyl)-benzyl]-2-oxo-1-pyridin-2-ylmethyl-2,3-dihydro-1H-imidazol-4-yl}-benzoic acid methyl ester]
0.1 to 0.249 µM | O=c1n(Cc2ccccc2)cc(-c2ccc(Cl)cc2)n1Cc1ccc(C(F)(F)P(=O)(O)O)c(Br)c1 [Compound 26, ({4-[3-Benzyl-5-(4-chloro-phenyl)-2-oxo-2,3-dihydro-imidazol-1-ylmethyl]-2-bromo-phenyl}-difluoro-methyl)-phosphonic acid]
0.1 to 0.249 µM | NC(=O)c1ccc(-c2cn(Cc3ccccc3)c(=O)n2Cc2ccc(C(F)(F)P(=O)(O)O)c(Br)c2)cc1 [Compound 27, ({4-[3-Benzyl-5-(4-carbamoyl-phenyl)-2-oxo-2,3-dihydro-imidazol-1-ylmethyl]-2-bromo-phenyl}-difluoro-methyl)-phosphonic acid]
